Results reported in article PMC7356787, “Structure-Activity Relationships for the Anaesthetic and Analgaesic Properties of Aromatic Ring-Substituted Ketamine Esters” (Molecules, 2020).

Experiments:
rats [1] = assay: Pedal withdrawal reflex (PWR) scoring during intravenous infusion (analgaesic potency); assay type: in vivo; settings: rat, i.v. infusion, dose to PWR = 1, mean (SEM), read-out: Analgaesia potency: minimal dose for loss of pedal withdrawal reflex (SEM)
Experimental: (§1) The compounds were evaluated for their ability to anaesthetise rats when administered by continuous intravenous infusion, as reported previously. Compounds were administered to initially deliver 20 mg/kg/min (weight-adjusted flow) to achieve a pedal withdrawal reflex score (PWR = 1), then titrated to maintain loss of righting reflex (LORR) for 10 min. Three rats were used in each study, with each group of rats also acting as their own ketamine control. Data were collected on the total dose of drug (mg/kg), to achieve LORR and a PWR = 1, and on the time (in seconds, from cessation of the infusion) to recovery of righting reflex (RORR) (recovery from the hypnotic anaesthesia effect). Given the complexity of the experimental protocol, the total dose for LORR (Table 1) is very consistent, with ranges of only 1.5-fold within each group. The consistency of the post-sedation recovery times are expectedly lower, with ranges of about 2.5-fold. During recovery the rats were monitored for multiple signs of behavioural dysfunction (see biology section for details) and the sum of these scores (from 0 to 4, with 0 being no effect and 4 being severe dysfunction) is given in Table 2. IC50 values for inhibition of the NMDA receptor were conducted by Eurofins PanLabs, Taiwan.
(§2) All animal experiments were conducted at the Ruakura Research Centre, Hamilton, New Zealand, using experimental protocols reviewed and approved by the Ruakura Animal Ethics Committee (ethics ref 12604/13786). Adult female Sprague-Dawley rats of approximately 250–350 g were evaluated in both anaesthetic and analgaesic study protocols. All study agents were delivered by tail vein cannula connected via minibore extension tubing to mechanised infusion pump.
(§3) Following acquisition of baseline physiologic parameters (heart rate, respiratory rate, PWR, and righting reflex (RR)) ketamine or an experimental compound at 10mg/mL were commenced at a rate (weight-adjusted) to deliver 20 mg/kg/min. Dose to loss of righting reflex (LORR see below), and subsequent pedal withdrawal score of 1 (PWR see below) were recorded. Following attaining a PWR of 1, infusion rate was reduced to 6.7 mg/kg/min, then titrated in an up-and-down fashion as required to maintain both dorsal recumbency, and a PWR = 1, to 10 min before cessation. Each study used three rats, with each group of rats also acting as their own ketamine control. Prior odds/evens randomisation determined the order of study drug administration was determined by with a recovery interval of at least three hours afforded between experiments. Records of PWR and RR were made at one-minute intervals throughout, from cessation of infusion to return of righting reflex (RORR), and from cessation of infusion to the animals displaying independent locomotion (walk).
Pedal Withdrawal Reflex (PWR) scoring: Nociceptive testing in animals was conducted via 1 s application of constant pressure (firm digital pressure) over the forepaw of the animal. Pedal withdrawal reflex testing is primarily used to assess analgaesic effect, and responses are graded accordingly: 0, absent; 1, flicker; 2, moderate withdrawal; 3, fast withdrawal; 4, Fast withdrawal with cry/preceding apnoea (modified from).

Drug half-life in rats = settings: rat, in vivo
Excerpt: Table 1 Biological and physiochemical data for esters of ring-substituted ketamine analogues. | column: Rat / t½ ^e (min)

rats [2] = assay: Behavioural dysfunction scoring during recovery from infusion; assay type: in vivo; settings: rat, during wake-up, sum score 0 (no effect) to 4 (severe dysfunction), mean (SEM)
Experimental: as §1
Behavioural dysfunction scoring: This was undertaken according to the following table. Observations were made over a one minute interval every five minutes from cessation of infusion until return of normal behaviours (total score = 0). A score of 1 was accorded for any positive behavioural aberration for each of four categories (maximal score 4) during wake-up.
Duration of any behavioural aberration was recorded from RORR as follows: score 0 = nil; score1 = 0–120 s; score 2 = 121–300 s; score 3 = 301–600 s; score 4 = 600+ s.

rats [3] = assay: Tail flick analgaesic assessment (composite tail flick latency, cTFL); assay type: in vivo; settings: rat, 20 mg/kg i.v. infused over 10 min; AUC of %MPE-time curve 0-60 min; measure of analgaesic magnitude/duration
Experimental: Analgaesic assessment protocol: Animal preparation was in accord with the anaesthetic assessment protocol above. Three rats were used in each study. Following venous cannulation, animals underwent infusion of ketamine or experimental compound at 20 mg/kg over a ten minute interval. A tail flick analgaesia meter (Colombus Instruments, Colombus, Ohio) was then used to determine thermal pain sensitivity. Radiant heat was applied using a shutter-controlled lamp as a heat source focused on a spot located 6–8 cm from the tip of the tail. The intensity of the beam was set at a level producing basal latency times between 2 and 4 s. To prevent thermal tissue injury the cut off time as set at 10 s. A digital response time indicator with a resolution of 0.1s measured the time from initiation of stimulus until tail withdrawal (the flick; TFL).
The TFL response following infusion of control and study drugs was calculated as a percentage of the maximum possible effect (MPE) such that:%MPE = [TFL (post-drug) – TFL (pre-drug)/10 s – TFL (pre-drug)] × 100%(1)
TFL latency was recorded at 5 min intervals from cessation of study drug infusion (time zero) to 60 min. Individual %MPE-time curves were constructed for each animal, and the area under the curve (AUC) adopted as a composite measure of induced analgaesia (cTFL).

rats [4] = assay: Anaesthetic assessment by continuous intravenous infusion in rats (loss and return of righting reflex); assay type: in vivo; settings: iv; rat, i.v. infusion starting at 20 mg/kg/min; measure of sedative potency; mean (SEM); read-out: Sedation LORR: minimal dose for loss of righting reflex (SEM)
Experimental: as §1, §2, §3
Loss of Righting Reflex (LORR): This is primarily used to assess anaesthetic hypnotic effect. Righting reflex is judged absent when the rat fails to right from a position of dorsal recumbency to a position of sternal recumbency on three attempts performed in rapid succession. Dose to LORR is termed effective potency.

[5] = molecular target: N-methyl-D-aspartate receptor; assay: Inhibition of the NMDA receptor (Eurofins Panlabs Taiwan); assay type: binding; settings: conducted by Eurofins Panlabs Taiwan
Experimental: as §1

**Q.** For CC(C)OC(=O)CCNC1(c2ccccc2Cl)CCCCC1=O (stereo not shown) [5a], which minimal effective dose (rats [1]) is on record?
**A.** 37 mg/kg

**Q.** What about the half-life (Drug half-life in rats) of the same compound?
**A.** 3.4 min

**Q.** And the “Behavioural dysfunction Score (SEM): severity on recovery” value (shortened to “Behavioural dysfunction Score (SEM)”) (rats [2])?
**A.** 2 (1)

**Q.** And the “Analgaesia cTFL (composite tail flick latency)” value (“Analgaesia cTFL” for short) (rats [3])?
**A.** 1384 s

**Q.** What about the minimal effective dose (rats [4]) of the same compound?
**A.** 33 mg/kg

**Q.** What about the IC50 [5] of the same compound?
**A.** 134 µM

**Q.** What does the source list for COC(=O)CCCCNC1(c2ccccc2Cl)CCCCC1=O (stereo not shown) [5b]?
**A.** minimal effective dose (rats [1]): 44 mg/kg; half-life (Drug half-life in rats): 0.7 min; Behavioural dysfunction Score (SEM): severity on recovery (rats [2]): 2 (0); Analgaesia cTFL (composite tail flick latency) (rats [3]): 374 s; minimal effective dose (rats [4]): 34 mg/kg; IC50 [5]: 3.2 µM

**Q.** Which minimal effective dose (rats [1]) does the source give for COC(=O)CCCCNC1(c2ccc(Cl)cc2)CCCCC1=O (stereo not shown) [15b, Methyl 5-((1-(4-chlorophenyl)-2-oxocyclohexyl)amino)pentanoate] here?
**A.** 100 mg/kg

**Q.** What about the “Behavioural dysfunction Score (SEM)” value (rats [2]) of the same compound?
**A.** 3 (1)

**Q.** What about the “Analgaesia cTFL” value (rats [3]) of the same compound?
**A.** 576 s

**Q.** What about the minimal effective dose (rats [4]) of the same compound?
**A.** 89 mg/kg

**Q.** What about the IC50 [5] of the same compound?
**A.** 101 µM

**Q.** Which minimal effective dose (rats [1]) does the source give for Cc1ccc(C2(NCCC(=O)OC(C)C)CCCCC2=O)cc1 (stereo not shown) [16a] here?
**A.** 52 mg/kg

**Q.** And the “Behavioural dysfunction Score (SEM)” value (rats [2])?
**A.** 1 (0)

**Q.** What about the “Analgaesia cTFL” value (rats [3]) of the same compound?
**A.** 650 s

**Q.** What about the minimal effective dose (rats [4]) of the same compound?
**A.** 47 mg/kg

**Q.** And the IC50 [5]?
**A.** 161 µM

**Q.** Which results are given for COC(=O)CCCCNC1(c2ccc(C)cc2)CCCCC1=O (stereo not shown) [16b]?
**A.** minimal effective dose (rats [1]): 55 mg/kg; Behavioural dysfunction Score (SEM): severity on recovery (rats [2]): 1 (0); Analgaesia cTFL (composite tail flick latency) (rats [3]): 0 s; minimal effective dose (rats [4]): 50 mg/kg; IC50 [5]: 23 µM

**Q.** For COc1ccc(C2(NCCC(=O)OC(C)C)CCCCC2=O)cc1 (stereo not shown) [17a], which minimal effective dose (rats [1]) is on record?
**A.** > 200 mg/kg

**Q.** And the “Behavioural dysfunction Score (SEM)” value (rats [2])?
**A.** 0 (0)

**Q.** What about the “Analgaesia cTFL” value (rats [3]) of the same compound?
**A.** 167 s

**Q.** What about the minimal effective dose (rats [4]) of the same compound?
**A.** > 200 mg/kg

**Q.** And the IC50 [5]?
**A.** 396 µM

**Q.** With CC(C)OC(=O)CCNC1(c2ccc(C(F)(F)F)cc2)CCCCC1=O (stereo not shown) [18a] as the compound, how does the minimal effective dose (rats [1]) read?
**A.** > 200 mg/kg

**Q.** And the “Behavioural dysfunction Score (SEM)” value (rats [2])?
**A.** 0 (0)

**Q.** What about the “Analgaesia cTFL” value (rats [3]) of the same compound?
**A.** 412 s

**Q.** And the minimal effective dose (rats [4])?
**A.** > 200 mg/kg

**Q.** What about the IC50 [5] of the same compound?
**A.** 438 µM

**Q.** For COC(=O)CCCCNC1(c2ccc(C(F)(F)F)cc2)CCCCC1=O (stereo not shown) [18b], which minimal effective dose (rats [1]) is on record?
**A.** > 200 mg/kg

**Q.** What about the “Behavioural dysfunction Score (SEM)” value (rats [2]) of the same compound?
**A.** 0 (0)

**Q.** And the “Analgaesia cTFL” value (rats [3])?
**A.** 37 s

**Q.** And the minimal effective dose (rats [4])?
**A.** > 200 mg/kg

**Q.** What about the IC50 [5] of the same compound?
**A.** 470 µM

**Q.** For CC(C)OC(=O)CCNC1(c2ccc(OC(F)(F)F)cc2)CCCCC1=O (stereo not shown) [19a], which minimal effective dose (rats [1]) is on record?
**A.** > 200 mg/kg

**Q.** What about the “Behavioural dysfunction Score (SEM)” value (rats [2]) of the same compound?
**A.** 0 (0)

**Q.** What about the “Analgaesia cTFL” value (rats [3]) of the same compound?
**A.** 166 s

**Q.** What about the minimal effective dose (rats [4]) of the same compound?
**A.** > 200 mg/kg

**Q.** And the IC50 [5]?
**A.** 314 µM

**Q.** Which minimal effective dose (rats [1]) does the source give for COC(=O)CCCCNC1(c2ccc(OC(F)(F)F)cc2)CCCCC1=O (stereo not shown) [19b] here?
**A.** > 200 mg/kg

**Q.** And the “Behavioural dysfunction Score (SEM)” value (rats [2])?
**A.** 0 (0)

**Q.** What about the “Analgaesia cTFL” value (rats [3]) of the same compound?
**A.** 194 s

**Q.** And the minimal effective dose (rats [4])?
**A.** > 200 mg/kg

**Q.** And the IC50 [5]?
**A.** 597 µM

**Q.** Which minimal effective dose (rats [1]) does the source give for CC(C)OC(=O)CCNC1(c2cccs2)CCCCC1=O (stereo not shown) [20a] here?
**A.** > 200 mg/kg

**Q.** What about the “Behavioural dysfunction Score (SEM)” value (rats [2]) of the same compound?
**A.** 1 (1)

**Q.** What about the “Analgaesia cTFL” value (rats [3]) of the same compound?
**A.** 362 s

**Q.** What about the minimal effective dose (rats [4]) of the same compound?
**A.** > 200 mg/kg

**Q.** What about the IC50 [5] of the same compound?
**A.** 157 µM

**Q.** For CNC1(c2ccccc2Cl)CCCCC1=O (stereo not shown) [compound 1, ketamine], which minimal effective dose (rats [1]) is on record?
**A.** 28 mg/kg

**Q.** What about the half-life (Drug half-life in rats) of the same compound?
**A.** 44.4 min

**Q.** And the “Behavioural dysfunction Score (SEM)” value (rats [2])?
**A.** 3 (0)

**Q.** What about the “Behavioural dysfunction Score (SEM)” value (rats [2]; listed as ketamine) of the same compound?
**A.** 3

**Q.** And the “Analgaesia cTFL” value (rats [3])?
**A.** 671 s

**Q.** What about the minimal effective dose (rats [4]) of the same compound?
**A.** 21 mg/kg

**Q.** And the IC50 [5]?
**A.** 0.7 µM
